Data published in patent publication US10259847B2, “Beta-hairpin peptidomimetics” (POLYPHOR AG, priority 2014, dated 2019).
Where a SMILES comes first, the peptide text is derived from it. Bridges are numbered along the chain shown (N, C = ends). [ ]: non-standard residue; d: D form. Tle = CC(C)(C)[C@H](N)C(=O)O; dDab = NCC[C@@H](N)C(=O)O; Dab = NCC[C@H](N)C(=O)O; dAze = O=C(O)[C@H]1CCN1; Dap = NC[C@H](N)C(=O)O

Tests used:
Type in all cases: cell-based
[1] = test system: Escherichia coli ATCC 25922; conditions: ATCC 25922
Method: (§1) Stock solutions were kept at +4° C., light protected.
(§2) The selective antimicrobial activities of the peptides were determined in 96-well plates (Greiner, polystyrene) by the standard NCCLS broth microdilution method (National Committee for Clinical Laboratory Standards 1993. Methods for dilution antimicrobial susceptibility tests for bacteria that grow aerobically, 3rd ed. Approved standard M7-A6; National Committee for Clinical laboratory standards, Wayne, Pa.) with slight modifications. Inocula of the microorganisms were diluted into Mueller-Hinton II (MH, cation adjusted) broth and compared with a 0.5 McFarland standard to give appr. 10^6 colony forming units (CFU)/mL. Aliquots (90 μl) of inoculate were added to 10 μl of MH broth+P-80 (Polysorbate 80, 0.002% final concentration) containing the peptide in serial two-fold dilutions. The following microorganisms were used to determine antibiotic selectivity of the peptides: Escherichia coli ATCC 25922, Klebsiella pneumoniae ATCC 13883 and Acinetobacter baumannii DSM 30008.

[2] = test system: Klebsiella pneumoniae ATCC 13883; conditions: ATCC 13883
Method: as §1, §2

[3] = test system: Acinetobacter baumannii DSM 30008; conditions: DSM 30008
Method: as §1, §2

[4] = test system: human red blood cells (hRBC); test: Hemolysis of human red blood cells; conditions: red cells of human, 1 h, 100
Method: as §1
Percent hemolysis was calculated as follows: (OD540peptide/OD540H2O)×100%.

Compound	Escherichia coli ATCC 25922 MIC [1] [µg/mL]	Klebsiella pneumoniae ATCC 13883 MIC [2] [µg/mL]	Acinetobacter baumannii DSM 30008 MIC [3] [µg/mL]	Hemolysis at 100 μg/mL [4] [%]
CC[C@H](C)[C@@H]1NC(=O)[C@@H]2CCCN2C(=O)[C@H]2CCCN2C(=O)[C@H](CO)NC(=O)[C@@H]2CSSC[C@H](NC1=O)C(=O)N[C@@H](Cc1ccc(O)cc1)C(=O)N[C@@H](CCN)C(=O)N[C@@H](CCCN)C(=O)N[C@H](CCN)C(=O)N[C@@H](CCN)C(=O)N[C@@H](Cc1c[nH]c3ccccc13)C(=O)N[C@@H](CCN)C(=O)N[C@@H](C(C)(C)C)C(=O)N2 [Example 10, cyclo(-Ile-Cys-Tyr-Dab-Orn-^DDab-Dab-Trp-Dab-tBuGly-Cys-Ser-^DPro-Pro-)] (HELM PEPTIDE1{I.C.Y.[Dab].[Orn].[NCC[C@@H](N[*:1])C(=O)[*:2]].[Dab].W.[Dab].[CC(C)(C)[C@H](N[*:1])C(=O)[*:2]].C.S.[dP].P}$PEPTIDE1,PEPTIDE1,2:R3-11:R3|PEPTIDE1,PEPTIDE1,1:R1-14:R2$$$V2.0)	1	0.25	1	1
CC[C@H](C)[C@@H]1NC(=O)[C@H](Cc2ccc(O)cc2)NC(=O)[C@H]2CCCN2C(=O)[C@H](CO)NC(=O)[C@@H]2CSSC[C@H](NC1=O)C(=O)N[C@@H](Cc1ccc(O)cc1)C(=O)N[C@@H](CCN)C(=O)N[C@@H](CCCN)C(=O)N[C@H](CCN)C(=O)N[C@@H](CCN)C(=O)N[C@@H](Cc1c[nH]c3ccccc13)C(=O)N[C@@H](CCN)C(=O)N[C@@H](C(C)(C)C)C(=O)N2 [Example 11, cyclo(-Ile-Cys-Tyr-Dab-Orn-^DDab-Dab-Trp-Dab-tBuGly-Cys-Ser-^DPro-Tyr-)] (HELM PEPTIDE1{C.S.[dP].Y.I.C.Y.[Dab].[Orn].[NCC[C@@H](N[*:1])C(=O)[*:2]].[Dab].W.[Dab].[CC(C)(C)[C@H](N[*:1])C(=O)[*:2]]}$PEPTIDE1,PEPTIDE1,1:R3-6:R3|PEPTIDE1,PEPTIDE1,1:R1-14:R2$$$V2.0)	2	0.5	1	1
CC(C)[C@@H]1NC(=O)[C@@H]2CCCN2C(=O)[C@H]2CCN2C(=O)[C@H]([C@@H](C)O)NC(=O)[C@@H]2CC(=O)NCC[C@H](NC1=O)C(=O)N[C@@H](Cc1ccc(O)cc1)C(=O)N[C@@H](CCN)C(=O)N[C@@H](CN)C(=O)N[C@H](CCN)C(=O)N[C@@H](CCN)C(=O)N[C@@H](Cc1c[nH]c3ccccc13)C(=O)N[C@@H](CCN)C(=O)N[C@@H](C(C)(C)C)C(=O)N2 [Example 12, cyclo(-Val-Dab-Tyr-Dab-Dap-^DDab-Dab-Trp-Dab-tBuGly-Asp-Thr-^DAzt-Pro-)] (cyclo(DT[dAze]PV[Dab]Y[Dab][Dap][dDab][Dab]W[Dab][Tle]); lactam 1-6)	0.5	0.25	1	4
CC(C)(C)[C@@H]1NC(=O)[C@H](CCN)NC(=O)[C@H](Cc2c[nH]c3ccccc23)NC(=O)[C@H](CCN)NC(=O)[C@@H](CCN)NC(=O)[C@H](CCCN)NC(=O)[C@H](CCCNC(=N)N)NC(=O)[C@H](Cc2ccc(O)cc2)NC(=O)[C@@H]2CCNC(=O)C[C@H](NC1=O)C(=O)N[C@@H](CO)C(=O)N1CCC[C@@H]1C(=O)N1CCC[C@H]1C(=O)N[C@@H](Cc1ccccc1)C(=O)N2 [Example 13, cyclo(-Phe-Dab-Tyr-Arg-Orn-^DDab-Dab-Trp-Dab-tBuGly-Asp-Ser-^DPro-Pro-)] (HELM PEPTIDE1{F.[Dab].Y.R.[Orn].[NCC[C@@H](N[*:1])C(=O)[*:2]].[Dab].W.[Dab].[CC(C)(C)[C@H](N[*:1])C(=O)[*:2]].D.S.[dP].P}$PEPTIDE1,PEPTIDE1,2:R3-11:R3|PEPTIDE1,PEPTIDE1,1:R1-14:R2$$$V2.0)	0.25	0.5	1	1
CC(C)(C)[C@@H]1NC(=O)[C@H](CCN)NC(=O)[C@H](Cc2c[nH]c3ccccc23)NC(=O)[C@H](CCN)NC(=O)[C@@H](CCN)NC(=O)[C@H](CCN)NC(=O)[C@H](CCN)NC(=O)[C@H](Cc2ccc(O)cc2)NC(=O)[C@@H]2CCNC(=O)C[C@H](NC1=O)C(=O)N[C@@H](CO)C(=O)N1CCC[C@@H]1C(=O)N1CCC[C@H]1C(=O)N[C@@H](Cc1c[nH]c3ccccc13)C(=O)N2 [Example 14, cyclo(-Trp-Dab-Tyr-Dab-Dab-^DDab-Dab-Trp-Dab-tBuGly-Asp-Ser-^DPro-Pro-)] (HELM PEPTIDE1{W.[Dab].Y.[Dab].[Dab].[NCC[C@@H](N[*:1])C(=O)[*:2]].[Dab].W.[Dab].[CC(C)(C)[C@H](N[*:1])C(=O)[*:2]].D.S.[dP].P}$PEPTIDE1,PEPTIDE1,2:R3-11:R3|PEPTIDE1,PEPTIDE1,1:R1-14:R2$$$V2.0)	0.25	0.25	0.5	2
CC(C)(C)[C@@H]1NC(=O)[C@H](CCN)NC(=O)[C@H](Cc2c[nH]c3ccccc23)NC(=O)[C@H](CCN)NC(=O)[C@H](CCN)NC(=O)[C@H](CCN)NC(=O)[C@H](CCN)NC(=O)[C@H](Cc2ccc(O)cc2)NC(=O)[C@@H]2CCNC(=O)C[C@H](NC1=O)C(=O)N[C@@H](CO)C(=O)N1CC[C@@H]1C(=O)N1CCC[C@H]1C(=O)N[C@@H](Cc1c[nH]c3ccccc13)C(=O)N2 [Example 15, cyclo(-Trp-Dab-Tyr-Dab-Dab-Dab-Dab-Trp-Dab-tBuGly-Asp-Ser-^DAzt-Pro-)] (HELM PEPTIDE1{D.S.[O=C([C@H]1CCN1[*:1])[*:2]].P.W.[Dab].Y.[Dab].[Dab].[Dab].[Dab].W.[Dab].[CC(C)(C)[C@H](N[*:1])C(=O)[*:2]]}$PEPTIDE1,PEPTIDE1,1:R3-6:R3|PEPTIDE1,PEPTIDE1,1:R1-14:R2$$$V2.0)	0.25	0.25	0.5	1
CC(C)[C@@H]1NC(=O)[C@@H]2CCCN2C(=O)[C@H]2CCCN2C(=O)[C@H](CO)NC(=O)[C@@H]2CC(=O)NCC[C@H](NC1=O)C(=O)N[C@@H](Cc1ccc(O)cc1)C(=O)N[C@@H](CCN)C(=O)N[C@@H](CCN)C(=O)N[C@H](CCN)C(=O)N[C@@H](CCN)C(=O)N[C@@H](Cc1c[nH]c3ccccc13)C(=O)N[C@@H](CCN)C(=O)N[C@@H](c1ccccc1)C(=O)N2 [Example 16, cyclo(-Val-Dab-Tyr-Dab-Dab-^DDab-Dab-Trp-Dab-Phg-Asp-Ser-^DPro-Pro-)] (HELM PEPTIDE1{V.[Dab].Y.[Dab].[Dab].[NCC[C@@H](N[*:1])C(=O)[*:2]].[Dab].W.[Dab].[Phg].D.S.[dP].P}$PEPTIDE1,PEPTIDE1,2:R3-11:R3|PEPTIDE1,PEPTIDE1,1:R1-14:R2$$$V2.0)	0.5	0.5	1	1
CC(C)[C@@H]1NC(=O)[C@@H]2CCCN2C(=O)[C@H]2CCCN2C(=O)[C@H](Cc2c[nH]cn2)NC(=O)[C@@H]2CC(=O)NCC[C@H](NC1=O)C(=O)N[C@@H](Cc1ccc(O)cc1)C(=O)N[C@@H](CCN)C(=O)N[C@@H]([C@@H](C)O)C(=O)N[C@@H](CCN)C(=O)N[C@@H](CCN)C(=O)N[C@@H](Cc1c[nH]c3ccccc13)C(=O)N[C@@H](CCN)C(=O)N[C@@H](C(C)(C)C)C(=O)N2 [Example 17, cyclo(-Val-Dab-Tyr-Dab-Thr-Dab-Dab-Trp-Dab-tBuGly-Asp-His-^DPro-Pro-)] (HELM PEPTIDE1{V.[Dab].Y.[Dab].T.[Dab].[Dab].W.[Dab].[CC(C)(C)[C@H](N[*:1])C(=O)[*:2]].D.H.[dP].P}$PEPTIDE1,PEPTIDE1,2:R3-11:R3|PEPTIDE1,PEPTIDE1,1:R1-14:R2$$$V2.0)	2	2	4	1
CC(C)C[C@@H]1NC(=O)[C@@H]2CCCN2C(=O)[C@H]2CCCN2C(=O)[C@H](CO)NC(=O)[C@@H]2CNC(=O)CC[C@H](NC1=O)C(=O)N[C@@H](Cc1ccc(O)cc1)C(=O)N[C@@H](CCN)C(=O)N[C@@H](CCCN)C(=O)N[C@@H](CCN)C(=O)N[C@@H](CCN)C(=O)N[C@@H](Cc1c[nH]c3ccccc13)C(=O)N[C@@H](CCN)C(=O)N[C@@H](C(C)(C)C)C(=O)N2 [Example 18, cyclo(-Leu-Glu-Tyr-Dab-Orn-Dab-Dab-Trp-Dab-tBuGly-Dap-Ser-^DPro-Pro-)] (HELM PEPTIDE1{L.E.Y.[Dab].[Orn].[Dab].[Dab].W.[Dab].[CC(C)(C)[C@H](N[*:1])C(=O)[*:2]].[O=C([C@H](CN[*:3])N[*:1])[*:2]].S.[dP].P}$PEPTIDE1,PEPTIDE1,2:R3-11:R3|PEPTIDE1,PEPTIDE1,1:R1-14:R2$$$V2.0)	2	0.5	3	0
